Assay results: US20240327412A1, “FACTOR XIIA INHIBITORS” (KALVISTA PHARMACEUTICALS LIMITED, priority 2021, published 2024)

Tests used:
Plasma Kallikrein = molecular target: T1, Plasma Kallikrein (Homo sapiens, UniProt P03952); experiment: Related protease inhibition: Plasma Kallikrein (fluorogenic substrate at Km); type: biochemical; conditions: class symbols per Table 18, read-out: IC50 (human PKal)
T1 construct: FXIIa converts plasma prekallikrein (PK) to plasma kallikrein (PKa)
Description: In vitro inhibition of related proteases was determined using an IC50 assay based on standard literature methods (see e.g. Shori et al., Biochem. Pharmacol., 1992, 43, 1209; Bouckaert et al., European Journal of Medicinal Chemistry 110 (2016) 181). Human serine protease enzyme Plasma Kallikrein, KLK1, FXa, Plasmin, Thrombin and Trypsin were assayed for enzymatic activity using an appropriate fluorogenic substrate at Km concentration, FXIa at fixed substrate concentration of 100 μM and various concentrations of the test compound. Protease activity was measured by monitoring the accumulation of liberated fluorescence from the substrate over 5 min at 25° C. The linear rate of fluorescence increase per minute was expressed as percentage (%) activity. IC50 values were calculated as the concentration of inhibitor giving 50% inhibition of the uninhibited enzyme activity (100%).

Human Factor XIIa = molecular target: T2, Human Factor XIIa (Homo sapiens, UniProt P00748); experiment: Determination of FXIIa inhibition (fluorogenic substrate H-DPro-Phe-Arg-AFC, IC50 assay); type: biochemical; conditions: substrate at Km concentration, 25° C.; category scale; read-out: Human FXII IC50 (nm)
T2 construct: Proteolytic cleavage of FXII to heavy and light chains of FXIIa dramatically increases catalytic activity; purchased Enzyme Research Laboratories
T2 sequence (P00748 373-615 limits assumed): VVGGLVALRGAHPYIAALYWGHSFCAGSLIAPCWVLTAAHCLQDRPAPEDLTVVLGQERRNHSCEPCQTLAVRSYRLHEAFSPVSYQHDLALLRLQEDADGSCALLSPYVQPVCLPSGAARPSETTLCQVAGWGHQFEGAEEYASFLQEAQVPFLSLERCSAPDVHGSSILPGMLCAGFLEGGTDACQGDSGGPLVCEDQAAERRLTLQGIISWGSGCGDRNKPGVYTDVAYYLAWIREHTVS
T2 sequence (P00748 20-372 partner limits assumed): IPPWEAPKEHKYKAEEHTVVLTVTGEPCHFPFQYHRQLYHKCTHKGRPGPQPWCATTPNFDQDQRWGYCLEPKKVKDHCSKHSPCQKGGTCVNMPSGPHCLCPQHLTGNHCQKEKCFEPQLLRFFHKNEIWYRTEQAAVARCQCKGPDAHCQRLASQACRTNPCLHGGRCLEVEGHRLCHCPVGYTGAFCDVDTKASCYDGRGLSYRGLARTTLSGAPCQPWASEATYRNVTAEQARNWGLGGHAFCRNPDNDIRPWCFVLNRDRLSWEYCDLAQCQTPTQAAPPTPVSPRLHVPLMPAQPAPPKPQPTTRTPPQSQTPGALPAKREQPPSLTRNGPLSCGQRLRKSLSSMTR
How it was run: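 At substrate Km and 25° C., the rate of AFC release from H-DPro-Phe-Arg-AFC by human Factor XIIa was followed for 5 min across compound concentrations. Inhibition was derived as percent of uninhibited rate, giving IC50.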

T1 sequence (P03952 391-638 limits assumed): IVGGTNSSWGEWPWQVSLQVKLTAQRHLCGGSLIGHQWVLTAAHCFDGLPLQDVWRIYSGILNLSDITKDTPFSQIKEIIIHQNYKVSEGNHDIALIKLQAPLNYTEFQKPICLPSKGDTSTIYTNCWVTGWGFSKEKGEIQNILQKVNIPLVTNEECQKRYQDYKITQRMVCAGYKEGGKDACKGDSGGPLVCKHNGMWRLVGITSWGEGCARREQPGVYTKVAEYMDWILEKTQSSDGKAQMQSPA
T1 sequence (P03952 20-390 partner limits assumed): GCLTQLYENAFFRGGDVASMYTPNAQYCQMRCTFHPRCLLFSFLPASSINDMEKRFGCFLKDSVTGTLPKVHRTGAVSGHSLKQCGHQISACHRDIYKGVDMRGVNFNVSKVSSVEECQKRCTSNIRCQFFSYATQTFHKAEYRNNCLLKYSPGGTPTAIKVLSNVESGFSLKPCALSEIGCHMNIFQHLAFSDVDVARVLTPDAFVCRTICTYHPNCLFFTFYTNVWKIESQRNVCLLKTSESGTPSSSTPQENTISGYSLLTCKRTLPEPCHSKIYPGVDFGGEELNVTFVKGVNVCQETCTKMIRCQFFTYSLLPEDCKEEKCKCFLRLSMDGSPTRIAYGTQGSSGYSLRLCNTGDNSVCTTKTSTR

Row | SMILES | IC50 (Plasma Kallikrein) | IC50 (Human Factor XIIa)
1 | Nc1nccc2c(NCC34CC(COC5CCn6ccnc6C5)(C3)C4)cccc12 (single isomer, unassigned) [Example 1002.2, (R*)-N5-((3-(((5,6,7,8-tetrahydroimidazo[1,2-a]pyridin-7-yl)oxy)methyl)bicyclo[1.1.1]pentan-1-yl)methyl)isoquinoline-1,5-diamine] | > 40 µM | 300 to 1000 nM
2 | Nc1nccc2c(N3CC4(CCC4OCc4ccn5ccnc5c4)C3)cccc12 (single isomer, unassigned) [Example 9003, (S*)-5-(5-(imidazo[1,2-a]pyridin-7-ylmethoxy)-2-azaspiro[3.3]heptan-2-yl)isoquinolin-1-amine] | > 40 µM | 10000 to 40000 nM
3 | Clc1c[nH]c2ncc(NCC34CC(COc5ccn6ccnc6c5)(C3)C4)cc12 [Example 1129, 3-chloro-N-((3-((imidazo[1,2-a]pyridin-7-yloxy)methyl)bicyclo[1.1.1]pentan-1-yl)methyl)-1H-pyrrolo[2,3-b]pyridin-5-amine] | > 100 µM | –
4 | Cn1ccc(OCC23CC(CNc4cccc5c(N)nccc45)(CN2C(=O)CCc2ccccc2Cl)C3)cc1=O [Example 13017, 4-((4-(((1-aminoisoquinolin-5-yl)amino)methyl)-2-(3-(2-chlorophenyl)propanoyl)-2-azabicyclo[2.1.1]hexan-1-yl)methoxy)-1-methylpyridin-2(1H)-one] | – | 300 to 1000 nM
5 | Cn1ccc(OCC23CC(CNc4cccc5c(N)nccc45)(CN2c2nc4ccccc4o2)C3)cc1=O [Example 13018, 4-[[4-[[(1-aminoisoquinolin-5-yl)amino]methyl]-2-(1,3-benzoxazol-2-yl)-2-azabicyclo[2.1.1]hexan-1-yl]methoxy]-1-methylpyridin-2-one] | – | 300 to 1000 nM
6 | Cn1ccc(OCC23CC(CNc4cccc5c(N)nccc45)(CN2C(=O)Nc2ccccc2)C3)cc1=O [Example 13019, 4-(((1-aminoisoquinolin-5-yl)amino)methyl)-1-(((1-methyl-2-oxo-1,2-dihydropyridin-4-yl)oxy)methyl)-N-phenyl-2-azabicyclo[2.1.1]hexane-2-carboxamide] | – | 300 to 1000 nM
7 | Cn1ccc(OCC23CC(CNc4cccc5c(N)nccc45)(CN2C(=O)OCc2ccccc2Cl)C3)cc1=O [Example 13020, 2-chlorobenzyl 4-(((1-aminoisoquinolin-5-yl)amino)methyl)-1-(((1-methyl-2-oxo-1,2-dihydropyridin-4-yl)oxy)methyl)-2-azabicyclo[2.1.1]hexane-2-carboxylate] | – | 10 to 100 nM

The next lines start with the values.

Row | IC50 (Plasma Kallikrein) | IC50 (Human Factor XIIa) | SMILES
8 | > 40 µM | 10000 to 40000 nM | Nc1nccc2c(N3CC4(CCC4OCc4ccn5ccnc5c4)C3)cccc12 (single isomer, unassigned) [Example 9002, (R*)-5-(5-(imidazo[1,2-a]pyridin-7-ylmethoxy)-2-azaspiro[3.3]heptan-2-yl)isoquinolin-1-amine]
9 | – | 300 to 1000 nM | Cn1ccc(OCC23CC(CNc4cccc5c(N)nccc45)(CN2C(=O)CCc2ccccn2)C3)cc1=O [Example 13016, 4-((4-(((1-aminoisoquinolin-5-yl)amino)methyl)-2-(3-(pyridin-2-yl)propanoyl)-2-azabicyclo[2.1.1]hexan-1-yl)methoxy)-1-methylpyridin-2(1H)-one]
10 | – | 300 to 1000 nM | Cn1ccc(OCC23CC(CNc4cccc5c(N)nccc45)(CN2C(=O)Cc2ccccc2)C3)cc1=O [Example 13021, 4-((4-(((1-aminoisoquinolin-5-yl)amino)methyl)-2-(2-phenylacetyl)-2-azabicyclo[2.1.1]hexan-1-yl)methoxy)-1-methylpyridin-2(1H)-one]
11 | – | 10 to 100 nM | Cn1cc(COC(=O)N2CC3(CNc4cccc5c(N)nccc45)CC2(COc2ccn(C)c(=O)c2)C3)cn1 [Example 13022, (1-methyl-1H-pyrazol-4-yl)methyl 4-(((1-aminoisoquinolin-5-yl)amino)methyl)-1-(((1-methyl-2-oxo-1,2-dihydropyridin-4-yl)oxy)methyl)-2-azabicyclo[2.1.1]hexane-2-carboxylate]
